The values that follow come from ChEMBL document CHEMBL2150850, “Recent advances in the development of selective human MAO-B inhibitors: (hetero)arylidene-(4-substituted-thiazol-2-yl)hydrazines” (Eur J Med Chem, 2012).

Usually IC50 stands for the concentration needed to halve the response being measured. The low end stands for higher potency, the high end for lower potency. One may read the inhibition as the percentage by which the read-out fell short of the control.

Series [1] addresses T1, Amine oxidase [flavin-containing] A (Homo sapiens, UniProt P21397).
T1 sequence (P21397 whole entry): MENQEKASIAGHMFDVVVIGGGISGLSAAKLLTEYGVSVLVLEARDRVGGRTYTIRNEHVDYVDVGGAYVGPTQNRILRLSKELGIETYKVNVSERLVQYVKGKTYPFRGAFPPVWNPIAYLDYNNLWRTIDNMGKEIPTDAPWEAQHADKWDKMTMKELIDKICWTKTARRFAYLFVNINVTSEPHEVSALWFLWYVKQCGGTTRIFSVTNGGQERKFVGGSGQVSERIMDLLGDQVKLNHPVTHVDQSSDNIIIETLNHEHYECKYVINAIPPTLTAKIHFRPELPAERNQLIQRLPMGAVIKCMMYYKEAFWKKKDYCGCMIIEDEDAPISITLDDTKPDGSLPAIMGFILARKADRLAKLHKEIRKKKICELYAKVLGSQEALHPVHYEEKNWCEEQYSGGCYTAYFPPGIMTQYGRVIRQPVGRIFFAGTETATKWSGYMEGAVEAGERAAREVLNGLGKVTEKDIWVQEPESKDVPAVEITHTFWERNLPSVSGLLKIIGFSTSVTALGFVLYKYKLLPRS
The series can be described thus: Inhibition of human MAO-A expressed in baculovirus infected BTI-TN-5B1-4 cells using p-tyramine as substrate incubated for 15 mins prior to substrate addition measured for 15 mins by Amplex red assay.

Series [2] addresses T2, Amine oxidase [flavin-containing] B (Homo sapiens, UniProt P27338).
T2 sequence (P27338 whole entry): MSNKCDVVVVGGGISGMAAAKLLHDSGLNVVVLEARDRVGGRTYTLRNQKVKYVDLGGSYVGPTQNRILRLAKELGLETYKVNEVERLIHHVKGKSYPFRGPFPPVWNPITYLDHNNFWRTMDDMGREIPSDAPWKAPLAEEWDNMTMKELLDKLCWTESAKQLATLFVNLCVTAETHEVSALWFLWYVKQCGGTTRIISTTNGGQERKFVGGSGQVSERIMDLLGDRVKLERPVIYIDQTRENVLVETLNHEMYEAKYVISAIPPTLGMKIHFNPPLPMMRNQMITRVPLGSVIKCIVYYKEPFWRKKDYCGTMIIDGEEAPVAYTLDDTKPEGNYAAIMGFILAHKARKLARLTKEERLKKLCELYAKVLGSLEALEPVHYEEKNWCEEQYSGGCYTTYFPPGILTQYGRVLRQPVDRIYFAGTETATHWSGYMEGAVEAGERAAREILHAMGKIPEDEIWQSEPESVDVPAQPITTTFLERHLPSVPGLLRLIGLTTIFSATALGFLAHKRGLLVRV
The series is described as follows: biochemical. Type of series: cell-based, BTI-TN-5B1-4.
Description: Inhibition of human MAO-B expressed in baculovirus infected BTI-TN-5B1-4 cells using p-tyramine as substrate incubated for 15 mins prior to substrate addition measured for 15 mins by Amplex red assay

The species named for a further series is Homo sapiens. The series can be described thus: Selectivity ratio of IC50 for human MAO-A to IC50 for human MAO-B.
Series [3] has as its target T1, Amine oxidase [flavin-containing] A. The series can be described thus: Inhibition of human MAO-A expressed in baculovirus infected BTI-TN-5B1-4 cells using p-tyramine as substrate at 100 uM incubated for 15 mins prior to substrate addition measured for 15 mins by Amplex red assay.
Series [4] has as its target T2, Amine oxidase [flavin-containing] B. The series is described as follows: Reversible inhibition of human MAO-B expressed in baculovirus infected BTI-TN-5B1-4 cells using p-tyramine as substrate at 20 nM incubated for 30 mins prior to substrate addition followed by 100 fold dilution measured for 15 mins by Amplex red assay. Conditions: bti-tn-5b1-4, 0.25 h, 0.02 µM; call rule not given here.

Series [5] shares this target. The series can be described thus: Inhibition of human MAO-B expressed in baculovirus infected BTI-TN-5B1-4 cells using p-tyramine as substrate at 100 uM incubated for 15 mins prior to substrate addition measured for 15 mins by Amplex red assay. Conditions: BTI-TN-5B1-4, human, 0.25 h.
The target is the same in series [6]. The series can be described thus: Reversible inhibition of human MAO-B expressed in baculovirus infected BTI-TN-5B1-4 cells using p-tyramine as substrate at 70 uM incubated for 30 mins prior to substrate addition followed by 100 fold dilution measured for 15 mins by Amplex red assay. The settings on record: bti-tn-5b1-4, 0.25 h.

As to `C/C(=N/Nc1nc(-c2ccc(F)cc2)cs1)c1ccco1`, the IC50 turned out to be 5670 nM in series [1] and 320 nM in series [2]. The Ratio IC50 in the series listed under Homo sapiens was found to be 18.
On to `C/C(=N/Nc1nc(-c2ccc(F)cc2)cs1)c1nccs1`, for which the IC50 in series [1] was 7550 nM; in series [2], 1210 nM. Besides, the Ratio IC50 in the series filed under Homo sapiens amounted to 6.2.
As for `C/C(=N/Nc1nc(-c2ccc(F)cc2F)cs1)c1ccccc1`, the IC50 came out at 21200 nM in series [1] and 90.3 nM in series [2]. For the same molecule, the Ratio IC50 in the series listed under Homo sapiens turned out to be 235.
As to `C/C(=N/Nc1nc(-c2ccc([N+](=O)[O-])cc2)cs1)c1ccccn1`, the IC50 in series [1] was 38700 nM; in series [2], 26.7 nM. Besides, the Ratio IC50 in the series filed under Homo sapiens amounted to 1450.
In series [3] (BTI-TN-5B1-4, human, 0.25 h), `C/C(=N/Nc1nc(-c2ccc(F)cc2)cs1)c1cccnc1` returned an inhibition at 100 µM of 40%. Further, the midpoint of inhibition in series [2], the IC50, lay at 1.7 nM. The Ratio IC50 in the series filed under Homo sapiens was above 58800. Further, in series [4], the “inhibition (INH)” value is “Active”.
`C/C(=N/Nc1nc(-c2ccc(F)cc2F)cs1)c1ccccn1` showed an IC50 in series [1] of 3040 nM. The Ratio IC50 in the series filed under Homo sapiens is below 0.03. The same molecule displayed an inhibition at 100 µM in series [5] of 40%.
For the molecule `C/C(=N/Nc1nc(-c2ccc(F)cc2)cs1)c1ccccc1`, the IC50 amounted to 4180 nM in series [1] and 351 nM in series [2]. Also, the Ratio IC50 in the series listed under Homo sapiens turned out to be 12.
The like results for `Fc1ccc(-c2csc(N/N=C\c3ccco3)n2)c(F)c1` were, in that order, 9110 nM, 217 nM and 42.
The corresponding values for `N#Cc1ccc(-c2csc(N/N=C\c3cccs3)n2)cc1` are 45000 nM, 153 nM and 294.
For the molecule `N#Cc1ccc(-c2csc(N/N=C\c3ccncc3)n2)cc1`, the “inhibition (INH)” value is “Active” in series [6] and “Not Active” in series [3] (human, bti-tn-5b1-4, 0.25 h, 100 µM). This molecule also returned an IC50 in series [2] of 6750 nM. In addition, in the series listed under Homo sapiens, the Ratio IC50 is above 15.
As for `C/C(=N/Nc1nc(-c2ccc([N+](=O)[O-])cc2)cs1)c1nccs1`, the IC50 in series [1] turned out to be 8970 nM; in series [2] it was 366 nM. Moreover, the Ratio IC50 in the series filed under Homo sapiens is 24.
The like results for `Fc1ccc(-c2csc(N/N=C\c3c[nH]c4ccccc34)n2)c(F)c1` were, in that order, 15300 nM, 529 nM and 29.
As for `C/C(=N/Nc1nc(-c2ccc(C#N)cc2)cs1)c1ccccn1`, the IC50 in series [1] worked out at 2850 nM; in series [2], 996 nM. For the same molecule, the Ratio IC50 in the series filed under Homo sapiens was 2.9.
Consider `C/C(=N/Nc1nc(-c2ccc(F)cc2F)cs1)c1nccs1`, for which the IC50 in series [1] amounted to 5460 nM; in series [2] it was 13 nM. For the same molecule, in the series filed under Homo sapiens, the Ratio IC50 worked out at 421.
The corresponding values for `C/C(=N/Nc1nc(-c2ccc(F)cc2)cs1)c1ccccn1` are 41700 nM, 24.3 nM and 1720.
The like results for `C/C(=N/Nc1nc(-c2ccc(C#N)cc2)cs1)c1ccncc1` were, in that order, 19100 nM, 436 nM and 44.
For the molecule `C/C(=N/Nc1nc(-c2ccc(C#N)cc2)cs1)c1nccs1`, the IC50 worked out at 2850 nM in series [1] and 2000 nM in series [2]. Further, the Ratio IC50 in the series filed under Homo sapiens was 1.4.
